Laboratory results reported in US20250011873A1, “ENDOCRINE TREATMENT OF HORMONE RECEPTOR POSITIVE BREAST CANCER TYPED AS HAVING A LOW RISK OF RECURRENCE” (Agendia N.V., priority 2021, published 2025).

What was measured:
[1] = test system: hormone-receptor (+) breast cancer; assay: NSABP B-42 randomized, double-blinded, placebo-controlled trial of extended adjuvant letrozole, analysed by MammaPrint risk group; assay type: in vivo, human; details: for HR, DFS: B-42 primary endpoint; for 10-year rate (%), letrozole arm (DFS rows: disease-free survival rate; DR/BCFI rows: event rate) / # Events (Letrozole): letrozole arm; for Abs. benefit (%): 10-year
From the text: NSABP B42 (Mamounas et al., 2019. Lancet Oncol 20: 88-99) refers to a randomized, double-blinded, placebo-controlled clinical trial of extended adjuvant endocrine therapy (tx) with letrozole (L) in postmenopausal women with hormone-receptor (+) breast cancer (BC) who have completed previous adjuvant tx with an aromatase inhibitor (AI). A pre-treatment gene expression biomarker such as MammaPrint may identify breast cancers at risk of recurrence in years 5 to 10 after diagnosis, for whom EET will be beneficial.
The MammaPrint test uses the expression levels of 70 genes to assess a patient's risk of recurrence. For the primary analysis, patient tumor samples were classified into a High Risk or Low Risk group by the 0.00 threshold in the MammaPrint index (high up to and low above 0.00 index, respectively). Recently, a subgroup of ultralow tumors is defined by MammaPrint index>+0.355 (Esserman et al., 2017. JAMA Oncol 3: 1503-1510).
Population for all analyses was based on the intention-to-treat (ITT) principle: patients were analyzed according to their randomized treatment, regardless of what they actually receive. This ensures the strengths of randomization are kept (an equal balance of potential prognostic factors between both groups), but it estimates the treatment effect in clinical practice.
Within the total study population and within each treatment arm, univariate Cox Regression Analysis were performed for MammaPrint risk groups and all available clinical, pathological, therapeutic variables. Summary statistics from the Cox model included the number of patients analyzed, hazard ratio (with 95% confidence interval (CI)) of the comparison and the according p-value. A p-value less than 0.05 (two sided) was considered statistically significance.
Differences in primary and secondary endpoints between placebo and letrozole groups were assessed by stratified log-rank tests. Stratification factors included original stratification factors from the parent B-42 trial, i.e., pathological node status at diagnosis (negative vs positive), prior tamoxifen use (no vs yes), and lowest bone mineral density T score in the lumbosacral spine, total hip, or femoral neck (≤−2.0 or >−2.0 SD).
Multivariate Cox Regression Analysis were utilized to examine the interaction between EET treatment and MP Risk index. Secondary elaborated multivariate analyses were performed to examine interaction with MammaPrint, EET treatment and any clinical and pathologic variable. Summary statistics from these Cox models include the number of patients analyzed, hazard ratios (with 95% CI) of the comparisons and the according p-values.
The following event variables were used for appropriate analyses: • Distant Recurrence (DR): yes vs. no • Time to DR: continuous months • Overall Survival (OS): yes vs. no • Time to Death: continuous months • Disease Free Survival (DFS): yes vs. no • Time to DFS: continuous months • Breast Cancer Free Interval (BCFI): yes vs. no • Time to BCFI: continuous months
A Kaplan-Meier curve with corresponding Log-rank test was used to visualize the survival distribution function for each MammaPrint risk group. Cox PH models stratified by nodal status, prior tamoxifen use, and lowest bone mineral density T-score was used to explore the association among risk factors listed to survival outcomes. This was done for each treatment arm. Kaplan-Meier curves were also used to visualize the survival distribution function for each treatment group.
NSABP-B42 assessed the effect of 5 years of letrozole after 5 years of prior endocrine therapy in postmenopausal women with early stage hormone receptor positive (HR+) breast cancer. Randomization occurred five years after diagnosis.
There were 3,966 patients randomly assigned to placebo or letrozole. Among them, 63 were excluded due to either no clinical assessment or not being at risk for the primary DFS endpoint for the B-42 parent trial. Blocks were available for 2,339 patients who consented for future research. […]

[2] = test system: hormone-receptor (+) breast cancer; details: cited from earlier work
[3] = test system: early-stage ER positive breast cancer; details: tamoxifen for five years; during the treatment period; cited from earlier work
[4] = BCFI, MP Risk Group H, letrozole vs placebo
[5] = BCFI, MP Risk Group L, letrozole vs placebo
[6] = BCFI, MP Risk Group LNUL, letrozole vs placebo
[7] = BCFI, MP Risk Group UL, letrozole vs placebo
[8] = DFS, MP Risk Group H, letrozole vs placebo
[9] = DFS, MP Risk Group L, letrozole vs placebo
[10] = DFS, MP Risk Group LNUL, letrozole vs placebo
[11] = DFS, MP Risk Group UL, letrozole vs placebo
[12] = DR, MP Risk Group H, letrozole vs placebo
[13] = DR, MP Risk Group L, letrozole vs placebo
[14] = DR, MP Risk Group LNUL, letrozole vs placebo
[15] = DR, MP Risk Group UL, letrozole vs placebo
[16] = all patients of the translational MP cohort, letrozole vs placebo

With N#Cc1ccc(C(c2ccc(C#N)cc2)n2cncn2)cc1 [Letrozole, letrozole] the “HR, DFS” value ([1]; 6.9 years of median follow-up) was 0.85, the “HR, DFS” value ([1]; updated results, 10.3 years of median follow-up) was 0.85 and the “reduction of distant recurrence (DR) in the letrozole arm” value ([1]; B-42 secondary endpoint) was 28%. For the same molecule, the “10-year rate (%), letrozole arm (DFS rows: disease-free survival rate; DR/BCFI rows: event rate)” value ([1]; BCFI, MP Risk Group H) was 14.6%, the “# Events (Letrozole)” value ([1]; BCFI, MP Risk Group H) was 42 and the “HR (95% CI)” value [1, 4] was 1.15. For the same molecule, the “Abs. benefit (%)” value [1, 4] was −3.0%, the “HR (95% CI)” value ([1]; BCFI, MP Risk Group H, letrozole vs placebo, listed as letrozole) was 1.15 (0.74, 1.79) and the “10-year rate (%), letrozole arm (DFS rows: disease-free survival rate; DR/BCFI rows: event rate)” value ([1]; BCFI, MP Risk Group L) was 8.4%. The “# Events (Letrozole)” value ([1]; BCFI, MP Risk Group L) was 44, the “HR (95% CI)” value [1, 5] was 0.51 and the “Abs. benefit (%)” value [1, 5] was 7.0%. The “HR (95% CI)” value ([1]; BCFI, MP Risk Group L, letrozole vs placebo, listed as letrozole) was 0.51 (0.35, 0.74), the “10-year rate (%), letrozole arm (DFS rows: disease-free survival rate; DR/BCFI rows: event rate)” value ([1]; BCFI, MP Risk Group LNUL) was 8.7% and the “# Events (Letrozole)” value ([1]; BCFI, MP Risk Group LNUL) was 36. The “HR (95% CI)” value [1, 6] was 0.48, the “Abs. benefit (%)” value [1, 6] was 7.9% and the “HR (95% CI)” value ([1]; BCFI, MP Risk Group LNUL, letrozole vs placebo, listed as letrozole) was 0.48 (0.32-0.73). The “10-year rate (%), letrozole arm (DFS rows: disease-free survival rate; DR/BCFI rows: event rate)” value ([1]; BCFI, MP Risk Group UL) was 7.3%, the “# Events (Letrozole)” value ([1]; BCFI, MP Risk Group UL) was 8 and the “HR (95% CI)” value [1, 7] was 0.67. The “Abs. benefit (%)” value [1, 7] was 4.1%, the “HR (95% CI)” value ([1]; BCFI, MP Risk Group UL, letrozole vs placebo, listed as letrozole) was 0.67 (0.28, 1.65) and the “10-year rate (%), letrozole arm (DFS rows: disease-free survival rate; DR/BCFI rows: event rate)” value ([1]; DFS, MP Risk Group H) was 71.2%. For the same molecule, the “# Events (Letrozole)” value ([1]; DFS, MP Risk Group H) was 91, the “HR (95% CI)” value [1, 8] was 1.10 and the “Abs. benefit (%)” value [1, 8] was −1.6%. For the same molecule, the “HR (95% CI)” value ([1]; DFS, MP Risk Group H, letrozole vs placebo, listed as letrozole) was 1.10 (0.82, 1.47), the “10-year rate (%), letrozole arm (DFS rows: disease-free survival rate; DR/BCFI rows: event rate)” value ([1]; DFS, MP Risk Group L) was 79.7% and the “# Events (Letrozole)” value ([1]; DFS, MP Risk Group L) was 113. For the same molecule, the “HR (95% CI)” value [1, 9] was 0.67, the “Abs. benefit (%)” value [1, 9] was 7.8% and the “HR (95% CI)” value ([1]; DFS, MP Risk Group L, letrozole vs placebo, listed as letrozole) was 0.67 (0.52, 0.85). For the same molecule, the “10-year rate (%), letrozole arm (DFS rows: disease-free survival rate; DR/BCFI rows: event rate)” value ([1]; DFS, MP Risk Group LNUL) was 78.9%, the “# Events (Letrozole)” value ([1]; DFS, MP Risk Group LNUL) was 93 and the “HR (95% CI)” value [1, 10] was 0.64. For the same molecule, the “Abs. benefit (%)” value [1, 10] was 9.5%, the “HR (95% CI)” value ([1]; DFS, MP Risk Group LNUL, letrozole vs placebo, listed as letrozole) was 0.64 (0.49, 0.83) and the “10-year rate (%), letrozole arm (DFS rows: disease-free survival rate; DR/BCFI rows: event rate)” value ([1]; DFS, MP Risk Group UL) was 82.5%. The “# Events (Letrozole)” value ([1]; DFS, MP Risk Group UL) was 20, the “HR (95% CI)” value [1, 11] was 0.82 and the “Abs. benefit (%)” value [1, 11] was 1.8%. For the same molecule, the “HR (95% CI)” value ([1]; DFS, MP Risk Group UL, letrozole vs placebo, listed as letrozole) was 0.82 (0.45, 1.48), the “10-year rate (%), letrozole arm (DFS rows: disease-free survival rate; DR/BCFI rows: event rate)” value ([1]; DR, MP Risk Group H) was 4.9% and the “# Events (Letrozole)” value ([1]; DR, MP Risk Group H) was 15. For the same molecule, the “HR (95% CI)” value [1, 12] was 0.65, the “Abs. benefit (%)” value [1, 12] was 2.4% and the “HR (95% CI)” value ([1]; DR, MP Risk Group H, letrozole vs placebo, listed as letrozole) was 0.65 (0.34, 1.24). The “10-year rate (%), letrozole arm (DFS rows: disease-free survival rate; DR/BCFI rows: event rate)” value ([1]; DR, MP Risk Group L) was 3.5%, the “# Events (Letrozole)” value ([1]; DR, MP Risk Group L) was 20 and the “HR (95% CI)” value [1, 13] was 0.43. For the same molecule, the “Abs. benefit (%)” value [1, 13] was 3.7%, the “HR (95% CI)” value ([1]; DR, MP Risk Group L, letrozole vs placebo, listed as letrozole) was 0.43 (0.25, 0.74) and the “10-year rate (%), letrozole arm (DFS rows: disease-free survival rate; DR/BCFI rows: event rate)” value ([1]; DR, MP Risk Group LNUL) was 3.6%. The “# Events (Letrozole)” value ([1]; DR, MP Risk Group LNUL) was 17, the “HR (95% CI)” value [1, 14] was 0.42 and the “Abs. benefit (%)” value [1, 14] was 4.0%. For the same molecule, the “HR (95% CI)” value ([1]; DR, MP Risk Group LNUL, letrozole vs placebo, listed as letrozole) was 0.42 (0.23, 0.76), the “10-year rate (%), letrozole arm (DFS rows: disease-free survival rate; DR/BCFI rows: event rate)” value ([1]; DR, MP Risk Group UL) was 2.9% and the “# Events (Letrozole)” value ([1]; DR, MP Risk Group UL) was 3. The “HR (95% CI)” value [1, 15] was 0.53, the “Abs. benefit (%)” value [1, 15] was 3.0% and the “HR (95% CI)” value ([1]; DR, MP Risk Group UL, letrozole vs placebo, listed as letrozole) was 0.53 (0.13, 2.15). The “HR, rate of DR” value ([1]; Excluded B-42 cohort, letrozole vs placebo) was 0.92, the “HR, BCFI” value ([1]; MP-H subgroup, after 5.2 years (time-dependent analysis)) was 2.77 and the “HR, BCFI” value ([1]; MP-H subgroup, prior to 5.2 years (time-dependent analysis)) was 0.65. The “HR, BCFI” value ([1]; MP-L subgroup, after 5.2 years (time-dependent analysis)) was 0.37, the “HR, BCFI” value ([1]; MP-L subgroup, prior to 5.2 years (time-dependent analysis)) was 0.65 and the “HR, breast cancer-free interval” value [1, 16] was 0.70 (0.53, 0.93). For the same molecule, the “HR, disease-free survival” value [1, 16] was 0.81 (0.68, 0.98), the “prolongation of disease-free survival (DFS)” value ([2]; NSABP B42, extended letrozole therapy compared to the placebo group (Mamounas et al., 2019)) was “no statistically significant prolongation” and the “reduction in distant recurrence (DR) in the letrozole arm” value ([2]; NSABP B42, extended letrozole vs placebo (Mamounas et al., 2019)) was 28%.

For CC/C(=C(\c1ccccc1)c1ccc(OCCN(C)C)cc1)c1ccccc1 [tamoxifen], the “reduction of recurrence rate compared to placebo” value [3] is given as 50%.
